{"source": "the supplement of paper PMC10307832", "assay_in_all_cases": "relative viability (nuclei count vs DMSO), 5 days (fraction); higher = more cells survive", "key": {"GSK-J4 + Navitoclax": {"compound": "CCOC(=O)CCNc1cc(N2CCc3ccccc3CC2)nc(-c2ccccn2)n1 [GSK-J4] + CC1(C)CCC(c2ccc(Cl)cc2)=C(CN2CCN(c3ccc(C(=O)NS(=O)(=O)c4ccc(N[C@H](CCN5CCOCC5)CSc5ccccc5)c(S(=O)(=O)C(F)(F)F)c4)cc3)CC2)C1 [Navitoclax] (partner 0.5 µM)", "outline": "(§1)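 Dosing by pin tool came one day after lung cancer cell lines were seeded in 1536-well plates, using either one drug or a fixed anchor-drug dose plus five library-drug doses (not always all listed) in √10 steps. After 5 days, nuclei were counted on 4× images. Relative viability is treated-well nuclei count divided by vehicle-well nuclei count, and values are medians of duplicate plates.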"}, "GSK-J4 + Phenformin": {"compound": "CCOC(=O)CCNc1cc(N2CCc3ccccc3CC2)nc(-c2ccccn2)n1 [GSK-J4] + N=C(N)NC(=N)NCCc1ccccc1 [Phenformin] (partner 250 µM)", "outline": "as §1"}, "AZ3146 + Alpelisib": {"compound": "CN1CCC(CC1)OC2=CC(=C(C=C2)NC3=NC=C4C(=N3)N(C(=O)N4C)C5CCCC5)OC [AZ3146] + Cc1nc(NC(=O)N2CCC[C@H]2C(N)=O)sc1-c1ccnc(C(C)(C)C(F)(F)F)c1 [Alpelisib] (partner 2 µM)", "outline": "as §1"}, "AZ3146 + Pemetrexed": {"compound": "CN1CCC(CC1)OC2=CC(=C(C=C2)NC3=NC=C4C(=N3)N(C(=O)N4C)C5CCCC5)OC [AZ3146] + Nc1nc2[nH]cc(CCc3ccc(C(=O)N[C@@H](CCC(=O)O)C(=O)O)cc3)c2c(=O)[nH]1 [Pemetrexed] (partner 0.2 µM)", "outline": "as §1"}}, "data": [{"cell line": "UMC-11", "values": [{"measurement": "relative viability", "setting": "GSK-J4 + Navitoclax; first compound 0.5 µM", "value": 0.332}, {"measurement": "relative viability", "setting": "GSK-J4 + Navitoclax; first compound 1.581 µM", "value": 0.233}, {"measurement": "relative viability", "setting": "GSK-J4 + Navitoclax; first compound 5 µM", "value": 0.341}, {"measurement": "relative viability", "setting": "GSK-J4 + Navitoclax; first compound 15.81 µM", "value": 0.305}, {"measurement": "relative viability", "setting": "GSK-J4 + Navitoclax; first compound 50 µM", "value": 0.179}, {"measurement": "relative viability", "setting": "GSK-J4 + Phenformin; first compound 0.5 µM", "value": 0.276}, {"measurement": "relative viability", "setting": "GSK-J4 + Phenformin; first compound 5 µM", "value": 0.241}, {"measurement": "relative viability", "setting": "GSK-J4 + Phenformin; first compound 15.81 µM", "value": 0.306}, {"measurement": "relative viability", "setting": "GSK-J4 + Phenformin; first compound 50 µM", "value": 0.294}, {"measurement": "relative viability", "setting": "AZ3146 + Alpelisib; first compound 0.08 µM", "value": 1.08}, {"measurement": "relative viability", "setting": "AZ3146 + Alpelisib; first compound 0.253 µM", "value": 0.98}, {"measurement": "relative viability", "setting": "AZ3146 + Alpelisib; first compound 0.8 µM", "value": 1.11}, {"measurement": "relative viability", "setting": "AZ3146 + Alpelisib; first compound 2.53 µM", "value": 0.861}, {"measurement": "relative viability", "setting": "AZ3146 + Alpelisib; first compound 8 µM", "value": 0.296}, {"measurement": "relative viability", "setting": "AZ3146 + Pemetrexed; first compound 0.08 µM", "value": 0.643}, {"measurement": "relative viability", "setting": "AZ3146 + Pemetrexed; first compound 0.253 µM", "value": 0.819}, {"measurement": "relative viability", "setting": "AZ3146 + Pemetrexed; first compound 0.8 µM", "value": 0.782}, {"measurement": "relative viability", "setting": "AZ3146 + Pemetrexed; first compound 2.53 µM", "value": 0.775}, {"measurement": "relative viability", "setting": "AZ3146 + Pemetrexed; first compound 8 µM", "value": 0.43}]}]}
